Drawing on patent publication US20170334899A1, “AMINO-SUBSTITUTED ISOTHIAZOLES” (Bayer Pharma Aktiengesellschaft, priority 2014, published 2017), this text covers IC50 for 24 compounds.

The test system of experiment [1] is human cervical tumor cell line HeLa (ATCC CCL-2). Put plainly: SAC-Formation - Paclitaxel-Induced Assay. It is filed as cell-based. The following applies: Homo sapiens, HeLa, 24 h, HeLa cells, paclitaxel 0.05 μM, test range 0.005 μM-20 μM, read-out: IC50 [mol/l] SAC-Formation - Paclitaxel-Induced Assay. The procedure, abridged:
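Read-out is high-content imaging of anti-phospho-H3 Ser10 (mitosis) and Hoechst 33342 (DNA, cell number), with decreased mitotic fraction marking checkpoint breakthrough. Compounds (0.005–20 μM) and 0.05 μM paclitaxel co-added to overnight-plated HeLa for 24 h at 37° C; four-parameter Hill fit.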

Experiment [2] deals with HeLa. Put plainly: Proliferation assay (crystal violet), HeLa. It is filed as cell-based. The following applies: Homo sapiens, HeLa, 96 h, HeLa cells; 4 days incubation; crystal violet staining; read-out: IC50 inhibition of proliferation, HeLa. The procedure, abridged:
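Absorbance at 595 nm of crystal-violet-stained cells after 4 days' exposure to 0.001–10 μM compound (0.5% DMSO). Values normalized to a day-0 plate (0%) and untreated cells (100%); IC50 by 4-parameter fit.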

Where only a bound is given, the exact number is not on record here.

Turning to `CCCN1CC[C@@H](Oc2ccc(NC(=O)c3c(C)nsc3Nc3cnc(C(F)(F)F)cn3)cn2)[C@@H](F)C1` [Example 140, N-(6-{[(3S,4R)-3-fluoro-1-propylpiperidin-4-yl]oxy}pyridin-3-yl)-3-methyl-5-{[5-(trifluoromethyl)pyrazin-2-yl]amino}-1,2-thiazole-4-carboxamide], the figures for the IC50 in experiment [1] and in experiment [2] were 110 nM and 220 nM, respectively.

In the case of `CCCCN1CC[C@@H](Oc2ccc(NC(=O)c3c(C)nsc3Nc3cnc(C(F)(F)F)cn3)cn2)[C@@H](F)C1` [Example 141, N-(6-{[(3S,4R)-1-butyl-3-fluoropiperidin-4-yl]oxy}pyridin-3-yl)-3-methyl-5-{[5-(trifluoromethyl)pyrazin-2-yl]amino}-1,2-thiazole-4-carboxamide], the results for the IC50 in experiment [1] and in experiment [2] were 120 nM and 340 nM, respectively.

`Cc1nsc(Nc2cnc(C(F)(F)F)cn2)c1C(=O)Nc1ccc(O[C@H]2CCN(CC(F)F)C[C@H]2F)nc1` [Example 144, N-(6-{[(3R,4S)-1-(2,2-difluoroethyl)-3-fluoropiperidin-4-yl]oxy}pyridin-3-yl)-3-methyl-5-{[5-(trifluoromethyl)pyrazin-2-yl]amino}-1,2-thiazole-4-carboxamide]: the IC50 turned out to be 94 nM in experiment [1] and 160 nM in experiment [2].

As for `Cc1nsc(Nc2cnc(C(F)(F)F)cn2)c1C(=O)Nc1ccc(O[C@H]2CCN(CC(F)(F)F)C[C@H]2F)nc1` [Example 145, N-(6-{[(3R,4S)-3-fluoro-1-(2,2,2-trifluoroethyl)piperidin-4-yl]oxy}pyridin-3-yl)-3-methyl-5-{[5-(trifluoromethyl)pyrazin-2-yl]amino}-1,2-thiazole-4-carboxamide], the IC50 in experiment [1] came out at 37 nM; in experiment [2], 160 nM.

Regarding `Cc1nsc(Nc2cnc(C(F)(F)F)cn2)c1C(=O)Nc1ccc(O[C@H]2CCN(CCC(F)(F)F)C[C@H]2F)nc1` [Example 146, N-(6-{[(3R,4S)-3-fluoro-1-(3,3,3-trifluoropropyl)piperidin-4-yl]oxy}pyridin-3-yl)-3-methyl-5-{[5-(trifluoromethyl)pyrazin-2-yl]amino}-1,2-thiazole-4-carboxamide], the IC50 in experiment [1] turned out to be 110 nM; in experiment [2] it was 240 nM.

`CCCN1CC[C@H](Oc2ccc(NC(=O)c3c(C)nsc3Nc3cnc(C(F)(F)F)cn3)cn2)[C@H](F)C1` [Example 147, N-(6-{[(3R,4S)-3-fluoro-1-propylpiperidin-4-yl]oxy}pyridin-3-yl)-3-methyl-5-{[5-(trifluoromethyl)pyrazin-2-yl]amino}-1,2-thiazole-4-carboxamide]: the IC50 in experiment [1] was 30 nM; in experiment [2] it was 320 nM.

Consider `CCCCN1CC[C@H](Oc2ccc(NC(=O)c3c(C)nsc3Nc3cnc(C(F)(F)F)cn3)cn2)[C@H](F)C1` [Example 148, N-(6-{[(3R,4S)-1-butyl-3-fluoropiperidin-4-yl]oxy}pyridin-3-yl)-3-methyl-5-{[5-(trifluoromethyl)pyrazin-2-yl]amino}-1,2-thiazole-4-carboxamide], for which the results for the IC50 in experiment [1] and in experiment [2] were 310 nM and 370 nM, respectively.

Turning to `Cc1nsc(Nc2cnc3cc(F)ccc3n2)c1C(=O)Nc1ccc(S(N)(=O)=O)cc1` [Example 149, 5-[(6-fluoroquinoxalin-2-yl)amino]-3-methyl-N-(4-sulfamoylphenyl)-1,2-thiazole-4-carboxamide], the IC50 is 1600 nM in experiment [1] and above 10000 nM in experiment [2].

Take `Cc1nsc(Nc2ccc(C#N)cn2)c1C(=O)Nc1cccc(S(C)(=O)=O)c1` [Example 150, 5-[(5-cyanopyridin-2-yl)amino]-3-methyl-N-[3-(methylsulfonyl)phenyl]-1,2-thiazole-4-carboxamide]: the IC50 in experiment [1] was 250 nM; in experiment [2], 2800 nM.

For `Cc1nsc(Nc2cnc(C(F)(F)F)cn2)c1C(=O)Nc1ccc(F)c(C(N)=O)c1` [Example 151, N-(3-carbamoyl-4-fluorophenyl)-3-methyl-5-{[5-(trifluoromethyl)pyrazin-2-yl]amino}-1,2-thiazole-4-carboxamide], the IC50 in experiment [1] came out at 1300 nM; in experiment [2], 8900 nM.

In the case of `CC(=O)Nc1cc(NC(=O)c2c(C)nsc2Nc2ccc(C#N)cn2)ccc1F` [Example 152, N-(3-acetamido-4-fluorophenyl)-5-[(5-cyanopyridin-2-yl)amino]-3-methyl-1,2-thiazole-4-carboxamide], the IC50 in experiment [1] was 8800 nM; in experiment [2] it was above 10000 nM.

As for `Cc1nsc(Nc2cnc(C(F)(F)F)cn2)c1C(=O)Nc1ccc(C(=O)NCCN2CCCC(F)(F)C2)cc1` [Example 153, N-(4-{[2-(3,3-difluoropiperidin-1-yl)ethyl]carbamoyl}phenyl)-3-methyl-5-{[5-(trifluoromethyl)pyrazin-2-yl]amino}-1,2-thiazole-4-carboxamide], the IC50 in experiment [1] was found to be 370 nM; in experiment [2], 2800 nM.

Take `Cc1nsc(Nc2cnc(C(F)(F)F)cn2)c1C(=O)Nc1ccc(C(=O)N2CCN(CC(F)F)CC2)cc1` [Example 154, N-(4-{[4-(2,2-difluoroethyl)piperazin-1-yl]carbonyl}phenyl)-3-methyl-5-{[5-(trifluoromethyl)pyrazin-2-yl]amino}-1,2-thiazole-4-carboxamide]: the IC50 worked out at 1200 nM in experiment [1] and 2500 nM in experiment [2].

On to `Cc1nsc(Nc2cncc(C(F)(F)F)n2)c1C(=O)Nc1ccc(C(=O)NCCN2CCCC(F)C2)cc1` (stereo not drawn) [Example 155, N-(4-{[2-(3-fluoropiperidin-1-yl)ethyl]carbamoyl}phenyl)-3-methyl-5-{[6-(trifluoromethyl)pyrazin-2-yl]amino}-1,2-thiazole-4-carboxamide], for which the values for the IC50 in experiment [1] and in experiment [2] were 20000 nM and 9900 nM, respectively.

In the case of `Cc1nsc(Nc2cnc3ccccc3n2)c1C(=O)Nc1ccc(C(=O)NCCN2CCCC(F)(F)C2)cc1` [Example 156, N-(4-{[2-(3,3-difluoropiperidin-1-yl)ethyl]carbamoyl}phenyl)-3-methyl-5-(quinoxalin-2-ylamino)-1,2-thiazole-4-carboxamide], the IC50 in experiment [1] was 4000 nM; in experiment [2], above 10000 nM.

As to `Cc1nsc(Nc2cnc3ccccc3n2)c1C(=O)Nc1ccc(C(=O)N2CCN(CC(F)F)CC2)cc1` [Example 157, N-(4-{[4-(2,2-difluoroethyl)piperazin-1-yl]carbonyl}phenyl)-3-methyl-5-(quinoxalin-2-ylamino)-1,2-thiazole-4-carboxamide], the IC50 is 900 nM in experiment [1] and above 10000 nM in experiment [2].

As to `Cc1nsc(Nc2cnc3ccccc3n2)c1C(=O)Nc1ccc(C(=O)NC2CN(C(=O)OC(C)(C)C)CC(F)(F)C2)cc1` (stereo not drawn) [Example 158, tert-butyl 3,3-difluoro-5-{[4-({[3-methyl-5-(quinoxalin-2-ylamino)-1,2-thiazol-4-yl]carbonyl}amino)benzoyl]amino} piperidine-1-carboxylate], the values for the IC50 in experiment [1] and in experiment [2] were 2800 nM and 3200 nM, respectively.

Turning to `Cc1nsc(Nc2cnc3ccccc3n2)c1C(=O)Nc1ccc(C(=O)N2CCCN(CC(F)(F)F)CC2)cc1` [Example 159], the figures for the IC50 in experiment [1] and in experiment [2] were 10000 nM and 2300 nM, respectively.

For `Cc1nsc(Nc2cnc(C(F)(F)F)cn2)c1C(=O)Nc1ccc(OC2CCN(C(C)C)CC2)nc1` [Example 160, N-{6-[(1-isopropylpiperidin-4-yl)oxy]pyridin-3-yl}-3-methyl-5-{[5-(trifluoromethyl)pyrazin-2-yl]amino}-1,2-thiazole-4-carboxamide], the IC50 in experiment [1] was 3600 nM; in experiment [2] it was 3300 nM.

With `Cc1nsc(Nc2cnc(C(F)(F)F)cn2)c1C(=O)Nc1ccc(OC2CCN(CCF)CC2)c(F)c1` [Example 162, N-(3-fluoro-4-{[1-(2-fluoroethyl)piperidin-4-yl]oxy}phenyl)-3-methyl-5-{[5-(trifluoromethyl)pyrazin-2-yl]amino}-1,2-thiazole-4-carboxamide], the results for the IC50 in experiment [1] and in experiment [2] were 120 nM and 330 nM, respectively.

Regarding `Cc1nsc(Nc2cnc(C(F)(F)F)cn2)c1C(=O)Nc1ccc(OC2CCN(CC(F)(F)F)CC2)c(F)c1` [Example 163, N-(3-fluoro-4-{[1-(2,2,2-trifluoroethyl)piperidin-4-yl]oxy}phenyl)-3-methyl-5-{[5-(trifluoromethyl)pyrazin-2-yl]amino}-1,2-thiazole-4-carboxamide], the IC50 in experiment [1] came to 39 nM; in experiment [2] it was 160 nM.

On to `Cc1nsc(Nc2cnc(C(F)(F)F)cn2)c1C(=O)Nc1ccc(OC2CCN(CC(F)F)CC2)c(F)c1` [Example 164, N-(4-{[1-(2,2-difluoroethyl)piperidin-4-yl]oxy}-3-fluorophenyl)-3-methyl-5-{[5-(trifluoromethyl)pyrazin-2-yl]amino}-1,2-thiazole-4-carboxamide], for which the results for the IC50 in experiment [1] and in experiment [2] were 140 nM and 160 nM, respectively.

Turning to `Cc1nsc(Nc2cnc(C(F)(F)F)cn2)c1C(=O)Nc1ccc(C(=O)NC2CCN(CC(F)(F)F)CC2)cc1` [Example 165, 3-methyl-N-(4-{[1-(2,2,2-trifluoroethyl)piperidin-4-yl]carbamoyl}phenyl)-5-{[5-(trifluoromethyl)pyrazin-2-yl]amino}-1,2-thiazole-4-carboxamide], the IC50 in experiment [1] worked out at 590 nM; in experiment [2] it was 3200 nM.

For `Cc1nsc(Nc2cncc(C(F)(F)F)n2)c1C(=O)Nc1ccc(OCC2CCCN(C(=O)OC(C)(C)C)C2)nc1` (stereo not drawn) [Example 166, tert-butyl 3-{[(5-{[(3-methyl-5-{[6-(trifluoromethyl)pyrazin-2-yl]amino}-1,2-thiazol-4-yl)carbonyl]amino}pyridin-2-yl)oxy]methyl}piperidine-1-carboxylate], the IC50 in experiment [1] worked out at 170 nM; in experiment [2] it was 830 nM.
